From US9381204B2, “Pharmaceutical compositions containing phosphatidylserine and curcumin” (FIDIA FARMACEUTICI S.P.A., priority 2012, dated 2016)

Key:
microglia BV-2 cells = assay: IL-1β release from LPS-stimulated BV-2 cells (ELISA); assay type: cell-based, murine; details: administered individually, 0.1 μg/ml LPS 16 hours; for inhibition of IL-1β release (FIG. 4): 1 μM or 5 μM; for inhibition of IL-1β release at the higher concentration (FIG. 4): 5 μM
Description: The experiment was conducted in two steps, and was designed to evaluate the effect on in vitro release of IL-1β from microglia BV-2 cells stimulated with LPS after administration of PS and curcumin. IL-1β is a cytokine strongly involved in the inflammatory processes underlying both osteoarticular disorders and neurodegeneration.
Murine microglial BV-2 cells were stimulated as described in Example 3 (0.1 μg/ml LPS for 16 hours) and then treated with PS and curcumin at the concentration of 1 μM or 5 μM. The IL-1β levels were determined by ELISA assay. The control (CTRL) was represented by cells stimulated with LPS but not treated.
At the second stage of the experiment the effects of the combination of the two substances were evaluated on the same parameter according to the same protocol.

[1] = test system: murine microglia BV-2 cells; assay: NO release by LPS-activated BV-2 microglia (Griess test); assay type: cell-based; details: 0.1 μg/ml LPS overnight; for effect on release of NO into the culture medium (FIG. 1): PS 10 and 30 μM, curcumin 2.5 and 5 μM
Description: PS (sodium salt), produced and purified according to EP1890706 (example 3), was resuspended in 2:1 chloroform/methanol, dried by evaporation and resuspended in PBS at the final concentration of 100 μM. 95% pure curcumin, prepared in DMSO at the final active ingredient concentration of 20 mM, was used for this experiment.
An in vitro glial activation model using the murine microglia BV-2 cell line was selected for this experiment:
50,000 cells/well were initially seeded in 96-well plates and cultured in DMEM containing 10% FCS, glutamine and antibiotics at 37° C. If activated with LPS (lipopolysaccharide, an endotoxin of Gram-negative bacterial, normally used as pro-inflammatory stimulus both in vitro and in vivo), these cells release NO into the culture medium; the experiment therefore involved stimulating them with 0.1 μg/ml LPS overnight in the presence or absence of PS (10 and 30 μM) or curcumin (2.5 and 5 μM) at different concentrations.
Finally, to evaluate the synergy between the two active constituents, the PS/curcumin combination was tested in the presence of LPS 0.1 μg/ml (as described above):
10 μM PS+2.5 μM curcumin, and
The final NO content in the medium was measured with the Griess test: briefly, aliquots of medium were mixed with equal volumes of Griess reagent (0.1% N(1-naphthyl)ethylenediamine dihydrochloride, 1% sulphanylamide and 0.4M HCl). After 15 minutes' reaction, the absorbance was measured at 570 nm.

[2] = test system: neural progenitor cells (NPCs); assay: Neuronal differentiation (βIII tubulin) of NPCs exposed to medium of LPS-activated microglia; assay type: cell-based, mice; details: alone, 1 and 5 μM; NPCs with medium of LPS-activated microglia, 6 days
Description: Cultures of stem cells/neural progenitor cells (NPCs) obtained from the subventricular zone of adult mice were used. The NPCs were cultured under conditions of differentiation by mechanical dissociation of the neurospheres and seeding of the individual cells on plates coated with poly-ornithine and laminin in a culture medium only containing factor bFGF, according to state-of-the-art techniques.
The NPC cultures thus obtained were divided into aliquots, each of which was treated differently, as follows:
b) treatment a) and PS and curcumin administered separately at different concentrations;
c) treatment a) and PS/curcumin combined at different relative concentrations.
The control was represented by untreated NPC cells.
Neuronal differentiation was evaluated after 6 days, by immunocytochemical analysis with antibodies directed against the specific marker βIII tubulin, extrapolating the % concentration of protein present in the medium.

Compound: COc1cc(C=CC(=O)CC(=O)C=Cc2ccc(O)c(OC)c2)ccc1O [curcumin, 1,7-bis[4-hydroxy-3-methoxyphenyl]-1,6-heptadiene-3,5-dione]
- inhibition of IL-1β release (FIG. 4) (microglia BV-2 cells): neither PS nor curcumin, administered individually, significantly inhibits the release of IL-1β
- inhibition of IL-1β release at the higher concentration (FIG. 4) (microglia BV-2 cells): limited effect
- inhibition at 5 µM ([1]; Mus musculus, single treatment of 5 μM curcumin, read-out: inhibition of NO release into the culture medium): < 20%
- effect on release of NO into the culture medium (FIG. 1) [1]: inhibit the release of NO into the medium in a dose-dependent manner
- percentage of cells positive to βIII tubulin (FIG. 6) [2]: did not differ significantly from that observed in the presence of LPS alone

Compound: phosphatidylserine [PS]
- inhibition of IL-1β release (FIG. 4) (microglia BV-2 cells): neither PS nor curcumin, administered individually, significantly inhibits the release of IL-1β
- inhibition of IL-1β release at the higher concentration (FIG. 4) (microglia BV-2 cells): limited effect
- effect on release of NO into the culture medium (FIG. 1) [1]: inhibit the release of NO into the medium in a dose-dependent manner
- inhibition of NO release into the culture medium ([1]; single treatment of 10 μM PS): ≤ 10%
- percentage of cells positive to βIII tubulin (FIG. 6) [2]: did not differ significantly from that observed in the presence of LPS alone
